Data on 18 compounds can be found in ChEMBL document CHEMBL1127281, “Synthesis and anti-herpes activity of some a-ring functionalized dehydroabietane derivatives” (Bioorg Med Chem Lett, 1994).

Molecules are shown by their SMILES. ≈ marks a conversion by molar mass, not a printed value.

The nature of experiment [1]: Concentration required for 50% inhibition of herpes simplex virus 2(HSV-2) using standard plaque reduction assay in vero cells. The conditions noted are these: Chlorocebus sabaeus. It counts as functional, cell-based. (In a plaque reduction assay, fewer plaques than in the control indicate reduced infectivity or spread.)
Experiment [2] has as its system Vero. Briefly: Concentration required for 50% inhibition of herpes simplex virus 2 (HSV-2) using standard plaque reduction assay in vero cells. It counts as functional, cell-based. To be noted: Chlorocebus sabaeus.

The term IC50 denotes the concentration that gives 50% inhibition.

`CC(C)c1ccc2c(c1)CC[C@H]1C(=O)[C@@H](O)CC[C@]21C` gave an IC50 in experiment [1] of 8 µg/mL (≈ 29.4 µM).

With `CC(C)c1ccc2c(c1)CC[C@H]1[C@](C)(Sc3ccccn3)CCC[C@]21C`, half-maximal inhibition in experiment [1] (IC50) required 20 µg/mL (≈ 54.7 µM). This IC50 lies about 2.5-fold higher than the previous one.

In the case of `C=C1[C@@H](O)CC[C@]2(C)c3ccc(C(C)C)cc3CC[C@@H]12`, the IC50 in experiment [1] came to 3 µg/mL (≈ 11.1 µM). On the same count and under the same terms, next, `C[C@@]1(CO)[C@H](O)CC[C@@]2(C)[C@H]1CCC1C[C@@H]3C[C@@]12CC[C@]3(O)CO` (stereo partly drawn): 0.2 µg/mL (≈ 0.591 µM); `C=C1CCC[C@]2(C)c3ccc(C(C)C)cc3CC[C@@H]12`: 10 µg/mL (≈ 39.3 µM).

`CC(C)c1ccc2c(c1)CC[C@H]1[C@@H](CO)[C@@H](O)CC[C@]21C` returned an IC50 in experiment [1] of 20 µg/mL (≈ 69.3 µM). On the same count and under the same terms, with `CC(C)c1ccc2c(c1)CC[C@H]1[C@]3(CCC[C@]21C)CO3` the figure was 20 µg/mL (≈ 74 µM); with `CC(C)c1ccc2c(c1)CC[C@H]1[C@@H](CO)CCC[C@]21C`, 9 µg/mL (≈ 33 µM); with `CC(C)c1ccc2c(c1)CC[C@H]1C(=O)CCC[C@]21C`, 14 µg/mL (≈ 54.6 µM). On the same count and under the same terms, next, `CC(C)c1ccc2c(c1)CC[C@H]1[C@@](O)(CO)[C@@H](O)CC[C@]21C`: 9 µg/mL (≈ 29.6 µM). In experiment [1], `CC(C)c1ccc2c(c1)CC[C@H]1[C@@](O)(CO)CCC[C@]21C` gave an IC50 of 14 µg/mL (≈ 48.5 µM). Still for that read-out and setting: next, `CC(C)c1ccc2c(c1)CC[C@H]1[C@@H](O)CCC[C@]21C`: 15 µg/mL (≈ 58 µM); `CC(C)c1ccc2c(c1)CC[C@H]1[C@H](O)[C@@H](O)CC[C@]21C`: 19 µg/mL (≈ 69.2 µM). Same read-out and setting: next, `Nc1nc2c(ncn2COCCO)c(=O)[nH]1` [ACYCLOVIR]: 1.5 µg/mL (≈ 6.66 µM). The same measure, in the same setting: next, `CC(C)c1ccc2c(c1)CC[C@H]1[C@](C)(C(=O)O)CCC[C@]21C` [DEHYDROABIETIC ACID]: 20 µg/mL (≈ 66.6 µM); `COC(=O)[C@]1(C)CCC[C@]2(C)c3ccc(C(C)C)cc3CC[C@@H]12` [METHYL DEHYDROABIETATE]: 20 µg/mL (≈ 63.6 µM).

Regarding `CC(C)c1ccc2c(c1)CC[C@H]1[C@](C)(CO)CCC[C@]21C` [POMIFERIN A], in experiment [1], the IC50 stood at 17 µg/mL (≈ 59.3 µM). `C[C@]12CC[C@]3(C1)[C@H](CC2=O)C[C@@H](OC(=O)c1ccccc1)[C@H]1[C@](C)(C(=O)O)CCC[C@@]13C` [SCOPADULCIC ACID B] returned an IC50 in experiment [2] of 0.2 µg/mL (≈ 0.456 µM).
